Test results from article PMC2912373, “Low-Density Lipoprotein Receptor-Related Protein 1 (LRP1) Mediates Neuronal Aβ42 Uptake and Lysosomal Trafficking” (PLoS ONE, 2010).

How the values were obtained:
N2a-mLRP4 cells = test: Co-localization of internalized FAM-Aβ42 with LysoTracker, confocal microscopy; type: cell-based, mouse
Experimental: To determine whether internalized Aβ42 is accumulated over time, we performed continuous feeding experiments of FAM-Aβ42 in N2a-pcDNA3 and N2a-mLRP4 cells. The steady-state levels and localization of Aβ42 were determined by flow cytometry and confocal microscopy, respectively (Fig. 2). Cells were incubated with 500 nM FAM-Aβ42 at 37°C for 24, 48 or 72 h and the content of fluorescence per cell was quantified by FACS and presented as a percentage of the levels in N2a-pcDNA3 at each time point (Fig. 2A). […] Therefore, we analyzed the subcellular localization of internalized FAM-Aβ42 by confocal microscopy in N2a cells treated as before and analyzed co-localization with lysosomes. For the visualization of acidic organelles, a brief incubation with LysoTracker Red at the end of the experiment was included (Fig. 2B). After 24 h of incubation, a small amount of cell-associated Aβ42 can be detected in N2a-mLRP4 cells.
Figure 2 Increased accumulation of intracellular Aβ42 within lysosomes in LRP1 minireceptor-expressing cells. A, increased Aβ42 accumulation in LRP1 minireceptor-expressing cells. N2a-mLRP4 and N2a-pcDNA3 cells were treated with 500 nM of FAM-Aβ42 at 37°C for 24, 48 and 72 h, and steady-state levels of intracellular Aβ42 were determined by flow cytometric analyses of pronase-treated cells as described in the Experimental Procedures. […] B, increased co-localization of intracellular Aβ42 and lysosomes in N2a-mLRP4 cells. N2a-pcDNA3 and N2a-mLRP4 cells were grown in glass chamber slides and treated with 500 nM of FAM-Aβ42 at 37°C for 24, 48 and 72 h. Lysosomes were labeled with LysoTracker 30 min before the end of each incubation. Cells were then fixed and analyzed by confocal microscopy.
For the imaging experiments, stable N2a cells were plated into an 8-well chambered coverglass at 16,250 cells/cm^2 with one independent chambered coverglass for each time point, and cells were grown overnight. […] Cells were then fixed and analyzed by a confocal laser scanning microscope (Fluoview 500, Olympus) using a 40x objective lens. […]

MEF cells = test: FAM-Aβ42 internalization in wild-type (MEF1) and LRP1 knockout (MEF2) fibroblasts, FACS; type: cell-based, mouse; conditions: 500 nM FAM-Aβ42, 37°C, 4 h, n = 3, p<0.01
Experimental: To rule out cell type-specific effects and artifacts due to the expression of LRP1 minireceptor, we performed similar FAM-Aβ42 uptake experiments in GT1-7 neuronal cells with reduced endogenous LRP1 levels by siRNA knockdown (Fig. 3A), and in mouse embryonic fibroblasts from both wild-type (MEF1) and LRP1 knockout mice (MEF2) (Fig. 3B). GT1-7 cells were plated and treated as indicated in the Experimental Procedures and GT1-7 and MEF cells were incubated with 500 nM of FAM-Aβ42 at 37°C for 4 h. Steady-state levels of intracellular Aβ42 were determined by flow cytometric analysis of pronase-treated cells. […]
Figure 3 LRP1 mediates internalization and accumulation of Aβ42 in GT1-7 and MEF cells. […] After 72 h, cells were treated with 500 nM FAM-Aβ42 for 4 h and intracellular Aβ42 was determined by flow cytometric analyses of pronase-treated cells as described in the Experimental Procedures. […] Wild type (MEF1) and LRP1 knockout (MEF2) fibroblasts were treated with 500 nM FAM-Aβ42 for 4 h, and intracellular Aβ42 was determined by flow cytometric analyses. ** p<0.01, t-test. n = 3. C, cell lysates from GT1-7 and MEF cells treated as in A and B, analyzed by 7.5% SDS-PAGE, and Western blotted with anti-LRP1 antibodies.
For quantification of Aβ uptake experiments, stable N2a cells were plated into 12-well plates at 16,250 cells/cm^2 and grown overnight. […]

## FAM-Aβ42: FAM-Aβ42 peptide (23526) from Anaspec; amyloid-β 42 with carboxyfluorescein at the N-terminal region
N2a-mLRP4 cells; 500 nM FAM-Aβ42, 37°C, 24, 48 and 72 h, N2a-mLRP4, increased over time
  co-localization of intracellular accumulated Aβ42 with LysoTracker: highly co-localized with LysoTracker
N2a-mLRP4 cells; 500 nM FAM-Aβ42, 37°C, 48 and 72 h, both N2a-pcDNA3 and N2a-mLRP4 cells
  localization of Aβ42 into LysoTracker-positive organelles: increased localization
N2a-mLRP4 cells; 500 nM FAM-Aβ42, 37°C, 24 h, 100 nM LysoTracker Red last 30 min, N2a-mLRP4
  localization of cell-associated FAM-Aβ42 into acidic organelles (LysoTracker): does not localize into acidic organelles
MEF cells
  internalization of FAM-Aβ42 in MEF2 (LRP1 knockout) compared to MEF1 (wild type): decrease
